Measured values from PubChem BioAssay AID1963867 (Molecular Pharmacology Branch, DTP, NCI, 2024).

Test system: KRAS-mutant PDC tumor spheroid with HUVEC/MSC, viability
Test: Anticancer human tumor 327498-153-R-J2-PDC patient-derived uterine carcinosarcoma cell line growth inhibition [KRAS2]
Conditions: for IC50: curve of first compound; for viability, T/C: stronger effect = lower value
Procedure, shortened: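 Combination screen of spheroid viability in tumor-cell co-cultures with endothelial (HUVEC) and mesenchymal stem cell stroma. Each agent was tested in half-log dilutions, topping at clinical Cmax or at 10 microM without a known Cmax.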

[1] = second compound 0.1 µM, first compound 0.0316 µM
[2] = second compound 0.1 µM, first compound 0.1 µM
[3] = second compound 0.1 µM, first compound 0.316 µM
[4] = second compound 0.1 µM, first compound 1 µM
[5] = second compound 0.1 µM, first compound 3.16 µM
[6] = second compound 0.1 µM, first compound 10 µM
[7] = second compound 0.316 µM, first compound 0.0316 µM
[8] = second compound 0.316 µM, first compound 0.1 µM
[9] = second compound 0.316 µM, first compound 0.316 µM
[10] = second compound 0.316 µM, first compound 1 µM
[11] = second compound 0.316 µM, first compound 3.16 µM
[12] = second compound 0.316 µM, first compound 10 µM
[13] = second compound 1 µM, first compound 0.0316 µM
[14] = second compound 1 µM, first compound 0.1 µM
[15] = second compound 1 µM, first compound 0.316 µM
[16] = second compound 1 µM, first compound 1 µM
[17] = second compound 1 µM, first compound 3.16 µM
[18] = second compound 1 µM, first compound 10 µM
[19] = second compound 3.16 µM, first compound 0.0316 µM
[20] = second compound 3.16 µM, first compound 0.1 µM
[21] = second compound 3.16 µM, first compound 0.316 µM
[22] = second compound 3.16 µM, first compound 1 µM
[23] = second compound 3.16 µM, first compound 3.16 µM
[24] = second compound 3.16 µM, first compound 10 µM
[25] = second compound 10 µM, first compound 0.0316 µM
[26] = second compound 10 µM, first compound 0.1 µM
[27] = second compound 10 µM, first compound 0.316 µM
[28] = second compound 10 µM, first compound 1 µM
[29] = second compound 10 µM, first compound 3.16 µM
[30] = second compound 10 µM, first compound 10 µM
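Also: spheroids exposed to agents for seven days before reading.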
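For viability, T/C in this document: 100% = DMSO vehicle wells so lower means fewer viable cells.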

| Structure (SMILES) | IC50 (second compound 0.1 µM) | IC50 (second compound 0.316 µM) | IC50 (second compound 1 µM) | IC50 (second compound 3.16 µM) | IC50 (second compound 10 µM) | viability, T/C [1] | viability, T/C [2] | viability, T/C [3] | viability, T/C [4] | viability, T/C [5] | viability, T/C [6] | viability, T/C [7] | viability, T/C [8] | viability, T/C [9] | viability, T/C [10] | viability, T/C [11] | viability, T/C [12] | viability, T/C [13] | viability, T/C [14] | viability, T/C [15] | further results |
| --- | --- | --- | --- | --- | --- | --- | --- | --- | --- | --- | --- | --- | --- | --- | --- | --- | --- | --- | --- | --- | --- |
| COC(=O)c1ccc2c(C(=Nc3ccc(N(C)C(=O)CN4CCN(C)CC4)cc3)c3ccccc3)c(O)[nH]c2c1 + CC1OCC2(CCN(c3cnc(Sc4ccnc(N)c4Cl)c(N)n3)CC2)C1N | 561 nM | 157 nM | < 31.6 nM | < 31.6 nM | < 31.6 nM | 76% | 68.8% | 58% | 43.8% | 26% | 26.8% | 57.1% | 50.7% | 44.7% | 34.5% | 16.2% | 18.8% | 40.4% | 41.9% | 33.3% | viability, T/C [16]: 20.6%; viability, T/C [17]: 14.5%; viability, T/C [18]: 11.4%; viability, T/C [19]: 36%; viability, T/C [20]: 33.4%; viability, T/C [21]: 23.5%; viability, T/C [22]: 14.1%; viability, T/C [23]: 11%; viability, T/C [24]: 10.1%; viability, T/C [25]: 28%; viability, T/C [26]: 27.9%; viability, T/C [27]: 20.5%; viability, T/C [28]: 13.3%; viability, T/C [29]: 11.4%; viability, T/C [30]: 9.36% |
| COc1cc(Nc2ncc3c(n2)-c2ccc(Cl)cc2C(c2c(F)cccc2OC)=NC3)ccc1C(=O)O + CC1OCC2(CCN(c3cnc(Sc4ccnc(N)c4Cl)c(N)n3)CC2)C1N | < 31.6 nM | < 31.6 nM | < 31.6 nM | < 31.6 nM | < 31.6 nM | 14.7% | 11.3% | 9.61% | 8.46% | 10.4% | 10.4% | 11.9% | 8.86% | 8.33% | 8.66% | 9.93% | 9.67% | 9.52% | 8.62% | 7.21% | viability, T/C [16]: 7.15%; viability, T/C [17]: 8.7%; viability, T/C [18]: 7.62%; viability, T/C [19]: 7.99%; viability, T/C [20]: 6.54%; viability, T/C [21]: 6%; viability, T/C [22]: 5.95%; viability, T/C [23]: 6.67%; viability, T/C [24]: 5.35%; viability, T/C [25]: 7.28%; viability, T/C [26]: 6.61%; viability, T/C [27]: 6.26%; viability, T/C [28]: 6.94%; viability, T/C [29]: 6.28%; viability, T/C [30]: 5.22% |
| COc1cc2nccc(Oc3ccc(NC(=O)C4(C(=O)Nc5ccc(F)cc5)CC4)cc3)c2cc1OC + CC1OCC2(CCN(c3cnc(Sc4ccnc(N)c4Cl)c(N)n3)CC2)C1N | 1310 nM | 659 nM | < 31.6 nM | < 31.6 nM | < 31.6 nM | 70.9% | 76.3% | 61.8% | 60.5% | 21.6% | 2.02% | 53.3% | 53.5% | 46.9% | 49.5% | 20.5% | 1.95% | 38.5% | 35.9% | 32.2% | viability, T/C [16]: 31.9%; viability, T/C [17]: 10.8%; viability, T/C [18]: 1.02%; viability, T/C [19]: 29.9%; viability, T/C [20]: 31.5%; viability, T/C [21]: 23.1%; viability, T/C [22]: 21.3%; viability, T/C [23]: 14.4%; viability, T/C [24]: 0.53%; viability, T/C [25]: 24.6%; viability, T/C [26]: 21.9%; viability, T/C [27]: 23.6%; viability, T/C [28]: 22.1%; viability, T/C [29]: 9.8%; viability, T/C [30]: 0.48% |
